Assays:
Carbonic anhydrase 9 = Carbonic anhydrase 9 (Homo sapiens, UniProt Q16790)
Carbonic anhydrase 1 = Carbonic anhydrase 1 (Homo sapiens, UniProt P00915)
Carbonic anhydrase 4 = Carbonic anhydrase 4 (Homo sapiens, UniProt P22748)
[1] = molecular target: Carbonic anhydrase 5A, mitochondrial (Homo sapiens, UniProt P35218)
Carbonic anhydrase 2 = Carbonic anhydrase 2 (Homo sapiens, UniProt P00918)

Carbonic anhydrase 1, sequence (P00915 whole entry): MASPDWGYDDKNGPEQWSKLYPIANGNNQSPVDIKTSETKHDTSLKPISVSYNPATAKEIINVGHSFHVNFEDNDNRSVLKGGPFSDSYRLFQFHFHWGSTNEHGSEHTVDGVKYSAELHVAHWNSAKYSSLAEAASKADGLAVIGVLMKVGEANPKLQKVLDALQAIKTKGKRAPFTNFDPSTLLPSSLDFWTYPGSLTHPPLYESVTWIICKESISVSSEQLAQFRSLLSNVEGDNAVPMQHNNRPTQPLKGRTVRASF
Carbonic anhydrase 5A, mitochondrial, sequence (P35218 whole entry): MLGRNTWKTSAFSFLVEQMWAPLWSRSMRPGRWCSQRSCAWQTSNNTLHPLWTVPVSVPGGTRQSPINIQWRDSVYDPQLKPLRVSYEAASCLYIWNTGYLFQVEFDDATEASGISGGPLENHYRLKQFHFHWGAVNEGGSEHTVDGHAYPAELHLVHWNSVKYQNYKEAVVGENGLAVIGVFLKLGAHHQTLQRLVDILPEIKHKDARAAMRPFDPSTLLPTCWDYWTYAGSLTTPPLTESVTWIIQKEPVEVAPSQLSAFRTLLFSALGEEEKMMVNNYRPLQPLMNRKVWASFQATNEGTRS
Carbonic anhydrase 4, sequence (P22748 whole entry): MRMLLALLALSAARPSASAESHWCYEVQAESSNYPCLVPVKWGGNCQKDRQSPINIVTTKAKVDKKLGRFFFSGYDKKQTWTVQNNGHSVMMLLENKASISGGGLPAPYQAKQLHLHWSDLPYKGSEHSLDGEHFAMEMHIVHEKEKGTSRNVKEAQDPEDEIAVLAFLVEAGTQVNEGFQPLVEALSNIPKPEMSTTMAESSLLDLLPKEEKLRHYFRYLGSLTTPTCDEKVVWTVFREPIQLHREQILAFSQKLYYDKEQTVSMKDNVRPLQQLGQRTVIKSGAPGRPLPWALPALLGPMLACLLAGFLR

SMILES: F[P-](F)(F)(F)(F)F.[Na+]
- Ki (Carbonic anhydrase 9): 8.1 mM
- Ki (Carbonic anhydrase 1): 11 mM
- Ki (Carbonic anhydrase 4): 19.1 mM
- Ki [1]: > 300 mM
- Ki (Carbonic anhydrase 2): 17.5 mM

Reference: ChEMBL document CHEMBL1141918 (Bioorg Med Chem Lett, 2005)
